The subject of assay [1] is plant growth. In words: Applicant's observation of plant growth induction by 1-octen-3-ol. Particulars: very low concentrations. The class given is in vivo.
The subject of assay [2] is cabbage aphid Brevicoryne brassicae. Description: Control of aphids on cabbage, single spray. The class given is in vivo. Particulars: white flies on tomato and cabbage aphids on cabbage.
Assay [3] has as its system root knot nematode, Meloidgyne javanica. In words: Split-root greenhouse trial on tomato with root knot nematode (Nemlab). The class given is in vivo. Particulars: for overall effectiveness in nematode control: split-root greenhouse trial; for Number of Eggs/Root System, Pot 1—nem. alone (of split root system) / Numbers of female nematodes/root, Pot 1—nem. alone (of split root system) / Galling Index, Pot 1—nem. alone (of split root system) / Number of Eggs/Root System, Pot 2—agent + nematode (of split root system) / Numbers of female nematodes/root, Pot 2—agent + nematode (of split root system) / Galling Index, Pot 2—agent + nematode (of split root system): tomato split root; for Number of Eggs/Root System, Pot 1—nem. alone (of split root system) / Numbers of female nematodes/root, Pot 1—nem. alone (of split root system): root half with M. javanica only; for Galling Index, Pot 1—nem. alone (of split root system): root half with M. javanica only (systemic), scale 0 no galls to 5 100% of roots with galls; for Number of Eggs/Root System, Pot 2—agent + nematode (of split root system) / Numbers of female nematodes/root, Pot 2—agent + nematode (of split root system) / Galling Index, Pot 2—agent + nematode (of split root system): root half with M. javanica plus agent; for Galling Index, Pot 2—agent + nematode (of split root system): scale 0 no galls to 5 100%. The method, then:
Comprehensive evaluation of the strains in greenhouse trials. […] It is difficult to obtain statistically valid results directly on nematode control from natural infestations since the levels of nematodes differ widely on a microsite level. Therefore, controlled greenhouse tests were conducted with Nemlab, a company in South Africa who specializes in nematode control testing. This trial was designed to consider mechanisms as well as direct contact control. As noted earlier, induction of systemic resistance was considered highly desirable, and would be expected given the generalized mechanisms of action described in Example 3, FIG. 8. To assess this character, tomato plants were grown for 6 weeks and then the roots were split into two, and each half root was placed into a separate pot with a single shoot. Except for water controls, 500-1000 eggs of the root knot nematode, Meloidgyne javanica were placed into each root system, but only one side, the various treatments were placed the biocontrol agents at 10^8 cfu/g soil. So, one root system of each plant contained nematodes only while the other contained nematodes plus the treatments. The treatments are shown below; there were six replicates per treatment. […] The experiment was designed to evaluate the ability of each strain to directly control (pot 2) and to control at-a-distance, the nematodes. […] There were a number of evaluations made of the plants at the end of the experiment, and the most important are shown below in Table 4 ([…] Index). Root galling is an index of the formation of 'knots' on roots that give root knot nematode its name and is an index of the root damage. The galls are the areas where the nematode is infesting the root and laying its eggs. The scale=0, no galls, 1, visible galling, 2, 25% of roots with galls, 3, 50% of roots with galls, 4, 75%, and 5, 100%.

For assay [4], the system named is White flies. Description: Control of white flies on greenhouse tomatoes with OPB+microbial strains. Particulars: single spray. The class given is in vivo, Bremia spp.
For assay [5], the system named is maize. In words: ABM trials and field testing of commercial products and strains on corn. The class given is in vivo.
The subject of assay [6] is corn. Description: Corn trials in the greenhouse, seed treatment. The class given is in vivo. To be noted: FIG. 2. From the text:
Corn trials in the greenhouse. […] The growth differences are clearly evident.

The test system of assay [7] is plant parasitic nematodes. Description: Field trials with sunflowers in South Africa, root galling. The class given is in vivo. Particulars: sunflower, naturally infested field, FIG. 12. The protocol: Field trials with sunflowers in the field in South Africa. Trials were conducted in the Republic of South Africa. Sunflower seeds were treated with various microorganisms and planted into soil infested with plant parasitic nematodes. After the plants were mature, roots were harvested and rated for root galling caused by the nematodes. The variability was quite large in this naturally infested field.

The test system of assay [8] is soybean. Description: Greenhouse soybean in sand tubes, seed treatment. The class given is in vivo. To be noted: stem length, Spad, root weight, root volume; FIG. 4; significant at alpha=0.05 or 0.01. The method, then:
Trichoderma strain K5 increases growth in soybean in the greenhouse when applied as a seed treatment. Soybean seeds were treated with either T. virens NRRL B-5025 strain or left untreated with no other microbial or chemical treatments being applied. These were planted into sand tubes and growth data was collected as the seeds emerged and the seedlings grew. […] All of the differences shown in FIG. 4 are significant at alpha=0.05 or 0.01.

In assay [9] the test system is nematodes. Description: Field trial in Iowa in a field heavily infested with nematodes: yields. To be noted: Iowa nematode-infested field.
In assay [10] the test system is corn (Zea mays). Description: Corn field trial ABM14 (1st field trial), seed treatments. The class given is in vivo. To be noted: both ABM14 and ABM15 studies.
The test system of assay [11] is wheat. Description: Greenhouse wheat seedlings, foliar spray. The class given is in vivo. To be noted: foliar spray vs water only; FIG. 3. The source says: Trichoderma strain K5 increases growth in greenhouse grown wheat when applied as a foliar treatment. […] Control plants were sprayed with water only.

Entries after “also recorded” stand apart in the source; their conditions may differ.

From patent publication US12030824B2 (priority 2016, dated 2024) come the findings set out here.

With `C=CC(O)CCCCC` (stereo not shown) [1-octen-3-ol], in assay [1], the “induction of plant growth” value was “potent inducer of enhanced plant growth”.
Turning to “Bacillus amyloliquifaciens [Bacillus AS2]”, in assay [2], the “conclusion from the combined two experiments” value (“conclusion” below) is listed as “highly effective”. Moreover, in assay [3], the “overall effectiveness in nematode control” value was “nearly as good an effect”; the “Number of Eggs/Root System, Pot 1—nem. alone (of split root system)” value was 2481; the “Numbers of female nematodes/root, Pot 1—nem. alone (of split root system)” value came to 14.67; the “Galling Index, Pot 1—nem. alone (of split root system)” value (from here on “Galling Index, Pot 1—nem. alone”) came to 2.3. Further, in assay [3], the “Number of Eggs/Root System, Pot 2—agent + nematode (of split root system)” value is 970; the “Numbers of female nematodes/root, Pot 2—agent + nematode (of split root system)” value is listed as 8.16; the “Galling Index, Pot 2—agent + nematode (of split root system)” value (from here on “Galling Index, Pot 2—agent + nematode”) is 2.0. Further, in [4], the “duration of white fly control” value is reported as “effects continued at least three weeks”.
Take “T. virens strain ATCC 20906 [Trichoderma K1]”: in assay [5], the “impact on corn in field testing” value is “negative impact on corn”. Also, in [2], the “conclusion” value is reported as “highly effective”. In assay [3], the “Number of Eggs/Root System, Pot 1—nem. alone (of split root system)” value amounted to 45631; the “Numbers of female nematodes/root, Pot 1—nem. alone (of split root system)” value was determined as 25.17; the “Galling Index, Pot 1—nem. alone” value amounted to 3.33; the “Number of Eggs/Root System, Pot 2—agent + nematode (of split root system)” value turned out to be 48765. Moreover, in [3], the “Numbers of female nematodes/root, Pot 2—agent + nematode (of split root system)” value is given as 35.7 and the “Galling Index, Pot 2—agent + nematode” value is 3.17. In addition, in assay [4], the “duration of white fly control” value is listed as “effects continued at least three weeks”.
With “Trichoderma gamsii (NRRL B-50520) [Trichoderma K5]”, the “growth of corn plants” value in assay [6] was “improved growth and development”. For the same compound, in assay [7], the “root galling index” value is “lowest numerical galling index of the biological treatments”. In [8], the “soybean seedling growth” value is given as “significantly increase soybean seedling growth”. The “conclusion” value in assay [2] is on record as “highly effective”. Further, the “yield performance” value in assay [9] was “excellent performance”. Besides, the “grain yields” value in assay [10] is on record as “largest grain yields”. Moreover, in [3], the “overall effectiveness in nematode control” value is recorded as “most effective treatment”; the “Number of Eggs/Root System, Pot 1—nem. alone (of split root system)” value came to 1298; the “Numbers of female nematodes/root, Pot 1—nem. alone (of split root system)” value was 4.0; the “Galling Index, Pot 1—nem. alone” value is 1.3. For the same compound, in [3], the “Number of Eggs/Root System, Pot 2—agent + nematode (of split root system)” value is 493; the “Numbers of female nematodes/root, Pot 2—agent + nematode (of split root system)” value came out at 8.5; the “Galling Index, Pot 2—agent + nematode” value was determined as 2.17. In [11], the “growth of wheat seedlings” value is “clearly larger and more vigorous; also recorded: significant growth increase”. For the same compound, in [4], the “duration of white fly control” value is “effects continued at least three weeks”.
